# pEC50: −log10 of the molar value. Structures can show the parent of a compound that is named as a salt. Where two headings read alike, the source gives them in different places.
# Test system: recombinant NL-Rluc virus (NL4-3 with Renilla Luciferase gene) in MT-2 cells
# Assay: Inhibition of HIV replication (NL-Rluc luciferase reporter virus, MT-2 cells)
# Assay type: cell-based, human immunodeficiency virus (HIV)
# Details: NL43, 120 h; for pEC50: read-out: Activity; for EC50: read-out: EC50 μM
Compound,pEC50,EC50 [µM]
"Cc1nc2cc(-c3cccc(OCc4ccc(F)cc4)c3)nn2c(-c2cc(F)c3c(c2C)CCCO3)c1C(OC(C)(C)C)C(=O)O (stereo not drawn) [Example 101, 2-tert-Butoxy-2-(7-(8-fluoro-5-methylchroman-6-yl)-2-(3-(4-fluorobenzyloxy)phenyl)-5-methylpyrazolo[1,5-a]pyrimidin-6-yl)acetic acid, TFA salt]",> 7.00,
"Cc1nc2cc(-c3cccc(-c4cccnc4)c3)nn2c(-c2cc(F)c3c(c2C)CCCO3)c1[C@H](OC(C)(C)C)C(=O)O [Example 119, (2S)-2-(tert-Butoxy)-2-(7-(8-fluoro-5-methylchroman-6-yl)-5-methyl-2-(3-(pyridin-3-yl)phenyl)pyrazolo[1,5-a]pyrimidin-6-yl)acetic acid]",> 7.00,
Cc1nc2cc(-c3ccccc3)nn2c(-c2ccccc2OC(F)(F)F)c1C(OC(C)(C)C)C(=O)O (stereo not drawn) [Example 7],< 6.00,
COc1ccc(-c2c(C(OC(C)(C)C)C(=O)O)c(C)nc3cc(-c4ccccc4)nn23)c(F)c1 (stereo not drawn) [Example 63],< 6.00,
"Cc1nc2cc(-c3ccnc(F)c3)nn2c(-c2cc(F)c3c(c2C)CCCO3)c1C(OC(C)(C)C)C(=O)O (stereo not drawn) [Example 109, 2-tert-Butoxy-2-(7-(8-fluoro-5-methylchroman-6-yl)-2-(2-fluoropyridin-4-yl)-5-methylpyrazolo[1,5-a]pyrimidin-6-yl)acetic acid, TFA salt]",6.00 to 7.00,0.27
"Cc1nc2cc(-c3cccc(Cl)c3)nn2c(C2CCCCC2)c1[C@H](OC(C)(C)C)C(=O)O [Example 149, (S)-2-(tert-Butoxy)-2-(2-(3-chlorophenyl)-7-cyclohexyl-5-methylpyrazolo[1,5-a]pyrimidin-6-yl)acetic acid]",< 6.00,
COc1cc(F)c(-c2c(C(OC(C)(C)C)C(=O)O)c(C)nc3cc(-c4ccccc4)nn23)cc1F (stereo not drawn) [Example 35],< 6.00,
Cc1nc2cc(-c3ccccc3)nn2c(-c2ccc3[nH]ccc3c2)c1C(OC(C)(C)C)C(=O)O (stereo not drawn) [Example 70],< 6.00,
"Cc1nc2cc(-c3cccc(Cl)c3)nn2c(-c2ccc(F)cc2)c1[C@H](OC(C)(C)C)C(=O)O [Example 147, (S)-2-(tert-Butoxy)-2-(2-(3-chlorophenyl)-7-(4-fluorophenyl)-5-methylpyrazolo[1,5-a]pyrimidin-6-yl)acetic acid]",< 6.00,
Cc1ccc(-c2c(C(OC(C)(C)C)C(=O)O)c(C)nc3cc(-c4ccccc4)nn23)c(Cl)c1 (stereo not drawn) [Example 53],6.00 to 7.00,
"Cc1nc2cc(-c3cccc(Cl)c3)nn2c(C(C)C)c1[C@H](OC(C)(C)C)C(=O)O [Example 145, (S)-2-(tert-Butoxy)-2-(2-(3-chlorophenyl)-7-isopropyl-5-methylpyrazolo[1,5-a]pyrimidin-6-yl)acetic acid]",< 6.00,
Cc1nc2cc(-c3ccccc3)nn2c(-c2ccc(Cl)cc2F)c1C(OC(C)(C)C)C(=O)O (stereo not drawn) [Example 27],< 6.00,
"Cc1ncccc1-c1cccc(-c2cc3nc(C)c([C@H](OC(C)(C)C)C(=O)O)c(-c4cc(F)c5c(c4C)CCCO5)n3n2)c1 [Example 167, (2S)-2-(tert-Butoxy)-2-(7-(8-fluoro-5-methylchroman-6-yl)-5-methyl-2-(3-(2-methylpyridin-3-yl)phenyl)pyrazolo[1,5-a]pyrimidin-6-yl)acetic acid]",> 7.00,
COc1ccccc1-c1c(C(OC(C)(C)C)C(=O)O)c(C)nc2cc(-c3ccccc3)nn12 (stereo not drawn) [Example 9],< 6.00,
"Cc1ccccc1-c1cccc(-c2cc3nc(C)c([C@H](OC(C)(C)C)C(=O)O)c(-c4cc(F)c5c(c4C)CCCO5)n3n2)c1 [Example 115, (2S)-2-(tert-Butoxy)-2-(7-(8-fluoro-5-methylchroman-6-yl)-5-methyl-2-(2′-methyl-[1,1′-biphenyl]-3-yl)pyrazolo[1,5-a]pyrimidin-6-yl)acetic acid]",> 7.00,0.02
Cc1nc2cc(-c3ccccc3)nn2c(-c2ccc3ncccc3c2)c1C(OC(C)(C)C)C(=O)O (stereo not drawn) [Example 50],< 6.00,2.4
"Cc1nc2cc(-c3ccc4c(c3)CCCC4)nn2c(-c2ccc(Cl)cc2F)c1[C@H](OC(C)(C)C)C(=O)O [Example 157, (2S)-2-(tert-Butoxy)-2-(7-(4-chloro-2-fluorophenyl)-5-methyl-2-(5,6,7,8-tetrahydronaphthalen-2-yl)pyrazolo[1,5-a]pyrimidin-6-yl)acetic acid]",6.00 to 7.00,
Cc1nc2cc(-c3ccccc3)nn2c(-c2cccnc2)c1C(OC(C)(C)C)C(=O)O (stereo not drawn) [Example 6],< 6.00,
"Cc1cccc(-c2cccc(-c3cc4nc(C)c([C@H](OC(C)(C)C)C(=O)O)c(-c5cc(F)c6c(c5C)CCCO6)n4n3)c2)c1 [Example 130, (2S)-2-(tert-Butoxy)-2-(7-(8-fluoro-5-methylchroman-6-yl)-2-(3′-methyl-[1,1′-biphenyl]-3-yl)-5-methylpyrazolo[1,5-a]pyrimidin-6-yl)acetic acid, TFA salt]",> 7.00,
"Cc1nc2c(Br)c(-c3ccccc3)nn2c(-c2cc(F)c3c(c2C)CCCO3)c1[C@H](OC(C)(C)C)C(=O)O [Example 138, (2S)-2-(3-Bromo-7-(8-fluoro-5-methylchroman-6-yl)-5-methyl-2-phenylpyrazolo[1,5-a]pyrimidin-6-yl)-2-(tert-butoxy)acetic acid]",6.00 to 7.00,
"Cc1nc2cc(-c3cccc(C(=O)Nc4ccccc4)c3)nn2c(-c2cc(F)c3c(c2C)CCCO3)c1C(OC(C)(C)C)C(=O)O (stereo not drawn) [Example 110, 2-tert-Butoxy-2-(7-(8-fluoro-5-methylchroman-6-yl)-5-methyl-2-(3-(phenylcarbamoyl)phenyl)pyrazolo[1,5-a]pyrimidin-6-yl)acetic acid, TFA salt]",6.00 to 7.00,
Cc1nc2cc(-c3ccccc3)nn2c(-c2ccc(F)cc2)c1C(OC(C)(C)C)C(=O)O (stereo not drawn) [Example 23],< 6.00,
"Cc1nc2cc(-c3ccc(Oc4ccccc4)cc3)nn2c(-c2ccc3c(c2)CCCO3)c1C(OC(C)(C)C)C(=O)O (stereo not drawn) [Example 112, 2-tert-Butoxy-2-(7-(chroman-6-yl)-5-methyl-2-(4-phenoxyphenyl)pyrazolo[1,5-a]pyrimidin-6-yl)acetic acid, TFA salt]",6.00 to 7.00,
Cc1nc2cc(-c3ccccc3)nn2c(-c2ccc3nccnc3c2)c1C(OC(C)(C)C)C(=O)O (stereo not drawn) [Example 74],< 6.00,
"Cc1nc2cc(-c3cccc(-c4ccccc4F)c3)nn2c(-c2cc(F)c3c(c2C)CCCO3)c1[C@H](OC(C)(C)C)C(=O)O [Example 118, (2S)-2-(tert-Butoxy)-2-(7-(8-fluoro-5-methylchroman-6-yl)-2-(2′-fluoro-[1,1′-biphenyl]-3-yl)-5-methylpyrazolo[1,5-a]pyrimidin-6-yl)acetic acid]",> 7.00,
"Cc1nc2cc(-c3cccc(-c4ccncc4)c3)nn2c(-c2cc(F)c3c(c2C)CCCO3)c1[C@@H](OC(C)(C)C)C(=O)O [Example 122, (2R)-2-(tert-Butoxy)-2-(7-(8-fluoro-5-methylchroman-6-yl)-5-methyl-2-(3-(pyridin-4-yl)phenyl)pyrazolo[1,5-a]pyrimidin-6-yl)acetic acid, TFA salt]",< 6.00,
"Cc1nc2cc(-c3cccc(-c4ccccc4C(F)(F)F)c3)nn2c(-c2cc(F)c3c(c2C)CCCO3)c1[C@H](OC(C)(C)C)C(=O)O [Example 173, (2S)-2-(tert-Butoxy)-2-(7-(8-fluoro-5-methylchroman-6-yl)-5-methyl-2-(2′-(trifluoromethyl)-[1,1′-biphenyl]-3-yl)pyrazolo[1,5-a]pyrimidin-6-yl)acetic acid]",> 7.00,

# From patent US8633200B2, “Inhibitors of human immunodeficiency virus replication” (priority 2010, dated 2014)
